In paper PMC7316994, “In Vitro Pharmacological Profile of a New Small Molecule Bradykinin B2 Receptor Antagonist” (Frontiers in Pharmacology, 2020):
“Also recorded” adds a separate entry of the source.

Tests used:
prostanoid TP receptor = target: T1, prostanoid TP receptor (Homo sapiens, UniProt P21731); experiment: umbilical vein, U-46619-induced contraction; conditions: Compound 2 10 μM; Compound 3 1 μM
T1 construct: endogenous human prostanoid TP receptors in the umbilical vein model; from tissue; host or cells: human umbilical vein rings
Text: The local ethics committee (CHU de Québec-Université Laval) had approved the project (File no. 2017-3720). Umbilical cords were obtained following elective caesarean sections; all problematic deliveries are excluded. Informed consent was obtained from the mothers. The cords were transported from the maternity ward to the laboratory in sterile Hank's balanced salt solution containing penicillin and streptomycin. Segments of umbilical veins were dissected carefully from the cords and a metal rod was inserted in the lumen. Excess connective tissue was excised and rings (2–3 mm wide) were cut. Rings of umbilical veins were suspended in 5-mL organ chambers containing oxygenated (95% O2, 5% CO2) and warmed (37°C) Krebs' solution between a metal hook and a thread loop. This solution had the following composition: NaCl 117.5 mM, KCl 4.7 mM, KH2PO4 1.2 mM, MgSO4 1.18 mM, CaCI2 2.5 mM, NaHCO3 25.0 mM, and D-glucose 5.5 mM. A baseline of one gram-weight was applied to these preparations. Changes of tension were recorded by using isometric transducers (model 52-9545, Harvard Bioscience, South Natick MA). Eight tissue baths are operated in parallel.
For this purpose, contractile responses to serotonin, acting on the 5-HT2A receptor, and U-46619, acting at the prostanoid TP receptor, were measured ([Rogines-Velo et al., 2002]; [Daray et al., 2003]).

Adenosine A1 = Adenosine A1 (Homo sapiens, UniProt P30542); experiment: radioligand binding (Table S2); conditions: [3H] DPCPX, Human recombinant CHO cells
Chemokine CCR2B = target: T2, Chemokine CCR2B (Homo sapiens, UniProt P41597); experiment: radioligand binding (Table S2); conditions: [125I] MCP-1, Human recombinant CHO-K1 cells
T2 construct: host or cells: CHO-K1 cells

Cholecystokinin CCK1 = Cholecystokinin CCK1 (Homo sapiens, UniProt P32238); experiment: radioligand binding (Table S2); conditions: [125I] CCK-8s, Human recombinant CHO cells
[1] = test system: Glycine, strychnine-sensitive; experiment: radioligand binding (Table S2); conditions: [3H] Strychnine, Wistar rat spinal cord
[2] = target: T3, Melanin-concentrating hormone receptor MCH1 (Homo sapiens, UniProt Q99705); experiment: radioligand binding (Table S2); conditions: [125I] [Phe13, Tyr19]-MCH, Human recombinant CHO cells
T3 construct: host or cells: CHO cells

Melanocortin MC3 = target: T4, Melanocortin MC3 (Homo sapiens, UniProt P41968); experiment: radioligand binding (Table S2); conditions: [125I] NDP-α-MSH, Human recombinant CHO cells
T4 construct: host or cells: CHO cells

Motilin = Motilin (Homo sapiens, UniProt O43193); experiment: radioligand binding (Table S2); conditions: [125I] Motilin, Human recombinant CHO cells
Neurokinin NK2 = target: T5, Neurokinin NK2 (Homo sapiens, UniProt P21452); experiment: radioligand binding (Table S2); conditions: [125I] NKA, Human recombinant CHO cells
T5 construct: host or cells: CHO cells
T5 sequence (P21452 1-398): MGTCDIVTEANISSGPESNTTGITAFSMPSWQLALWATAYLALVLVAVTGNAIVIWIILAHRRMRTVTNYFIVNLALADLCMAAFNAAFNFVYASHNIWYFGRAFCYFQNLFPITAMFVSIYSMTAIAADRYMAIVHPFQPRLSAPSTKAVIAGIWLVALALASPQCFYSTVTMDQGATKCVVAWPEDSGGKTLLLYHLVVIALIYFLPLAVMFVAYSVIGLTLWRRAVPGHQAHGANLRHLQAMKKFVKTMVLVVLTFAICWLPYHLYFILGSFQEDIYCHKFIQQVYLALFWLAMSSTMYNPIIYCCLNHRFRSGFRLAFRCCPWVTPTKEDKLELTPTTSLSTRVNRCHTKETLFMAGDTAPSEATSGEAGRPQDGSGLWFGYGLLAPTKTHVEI

Neuropeptide Y2 = target: T6, Neuropeptide Y2 (Homo sapiens, UniProt P49146); experiment: radioligand binding (Table S2); conditions: [125I] Peptide YY, KAN-TYS cells
T6 construct: KAN-TYS cells; host or cells: KAN-TYS cells

Oxytocin = target: T7, Oxytocin (Homo sapiens, UniProt P30559); experiment: radioligand binding (Table S2); conditions: [3H] Oxytocin, Human recombinant Chem-1 cells
T7 construct: host or cells: Chem-1 cells

[3] = test system: Potassium channel (Ca activated) SKCa channel; experiment: radioligand binding (Table S2); conditions: [125I] Apamin, Rat cerebral cortex
Prostanoid CRTH2 = target: T8, Prostanoid CRTH2 (Homo sapiens, UniProt Q9Y5Y4); experiment: radioligand binding (Table S2); conditions: [3H] Prostaglandin D2, Human recombinant CHO-K1 cells
T8 construct: host or cells: CHO-K1 cells

Prostanoid EP1 = target: T9, Prostanoid EP1 (Homo sapiens, UniProt P34995); experiment: radioligand binding (Table S2); conditions: [3H] Prostaglandin E2, Human recombinant HEK-293 cells
T9 construct: host or cells: HEK-293 cells

Prostanoid FP = target: T10, Prostanoid FP (Homo sapiens, UniProt P43088); experiment: radioligand binding (Table S2); conditions: [3H] Prostaglandin F2α, Human recombinant HEK-293 cells
T10 construct: host or cells: HEK-293 cells

Purinergic receptor P2Y = experiment: radioligand binding (Table S2); conditions: [35S] dATPαS, Rat cerebral cortex
Serotonin 5-HT2B = target: T11, Serotonin 5-HT2B (Homo sapiens, UniProt P41595); experiment: radioligand binding (Table S2); conditions: [125I] (±)DOI, Human recombinant CHO cells
T11 construct: host or cells: CHO cells

Serotonin 5-HT7 = target: T12, Serotonin 5-HT7 (Homo sapiens, UniProt P34969); experiment: radioligand binding (Table S2); conditions: [3H] LSD, Human recombinant CHO cells
T12 construct: host or cells: CHO cells

[4] = test system: Sodium Na+ channel (site 2); assay type: binding; conditions: [3H] Batrachotoxinin, Rat cerebral cortex
Urotensin UT = target: T13, Urotensin UT (Homo sapiens, UniProt Q9UKP6); experiment: radioligand binding (Table S2); conditions: [125I] Urotensin-II, Human recombinant CHO cells
T13 construct: host or cells: CHO cells

COX2 = target: T14, COX2 (Homo sapiens, UniProt P35354); experiment: enzyme assay (Table S2); assay type: biochemical; conditions: Arachidonic acid (2 µM) + ADHP, Fluorimetry
T14 construct: Eurofins (assay provider); host or cells: Sf9 cells

in vitro = conditions: male, Wistar, rat, microsomes, pH 7.4
Cannabinoid CB1 = Cannabinoid CB1 (Homo sapiens, UniProt P21554); experiment: radioligand binding (Table S2); conditions: read-out: % Inhibition @ 10 µM
Chain of Cannabinoid CB1 (P21554 whole entry): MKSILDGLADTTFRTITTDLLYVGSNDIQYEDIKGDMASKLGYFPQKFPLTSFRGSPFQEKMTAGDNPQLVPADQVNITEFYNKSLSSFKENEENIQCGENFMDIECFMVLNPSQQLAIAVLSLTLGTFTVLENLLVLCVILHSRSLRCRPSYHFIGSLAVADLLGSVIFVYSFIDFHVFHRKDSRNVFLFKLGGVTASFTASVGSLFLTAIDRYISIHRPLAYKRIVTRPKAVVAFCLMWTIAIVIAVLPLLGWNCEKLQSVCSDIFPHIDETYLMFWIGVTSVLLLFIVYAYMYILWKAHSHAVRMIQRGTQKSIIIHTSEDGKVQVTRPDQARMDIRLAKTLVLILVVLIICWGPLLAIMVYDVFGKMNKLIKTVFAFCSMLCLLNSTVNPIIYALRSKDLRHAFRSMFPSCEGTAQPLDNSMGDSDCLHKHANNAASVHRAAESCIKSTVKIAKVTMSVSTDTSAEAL

T1 sequence (P21731 whole entry): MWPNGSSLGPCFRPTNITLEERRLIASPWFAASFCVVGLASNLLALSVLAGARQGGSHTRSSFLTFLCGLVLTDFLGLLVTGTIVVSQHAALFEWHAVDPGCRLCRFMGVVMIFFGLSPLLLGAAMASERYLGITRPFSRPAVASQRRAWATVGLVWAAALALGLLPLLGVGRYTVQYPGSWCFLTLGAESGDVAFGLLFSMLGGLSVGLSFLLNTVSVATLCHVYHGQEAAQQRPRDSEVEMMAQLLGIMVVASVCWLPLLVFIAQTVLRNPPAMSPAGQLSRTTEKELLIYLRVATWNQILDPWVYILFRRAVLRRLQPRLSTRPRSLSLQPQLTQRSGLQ
T7 sequence (P30559 whole entry): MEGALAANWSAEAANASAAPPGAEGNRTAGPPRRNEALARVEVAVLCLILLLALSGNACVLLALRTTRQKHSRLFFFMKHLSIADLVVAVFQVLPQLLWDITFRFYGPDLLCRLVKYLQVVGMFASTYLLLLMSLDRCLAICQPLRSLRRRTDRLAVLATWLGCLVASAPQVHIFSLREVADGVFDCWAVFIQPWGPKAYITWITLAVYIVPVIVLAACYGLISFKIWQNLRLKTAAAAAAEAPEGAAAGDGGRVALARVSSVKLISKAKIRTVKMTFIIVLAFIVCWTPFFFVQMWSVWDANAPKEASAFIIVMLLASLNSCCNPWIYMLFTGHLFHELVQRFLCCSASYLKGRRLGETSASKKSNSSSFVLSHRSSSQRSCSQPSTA
T10 sequence (P43088 whole entry): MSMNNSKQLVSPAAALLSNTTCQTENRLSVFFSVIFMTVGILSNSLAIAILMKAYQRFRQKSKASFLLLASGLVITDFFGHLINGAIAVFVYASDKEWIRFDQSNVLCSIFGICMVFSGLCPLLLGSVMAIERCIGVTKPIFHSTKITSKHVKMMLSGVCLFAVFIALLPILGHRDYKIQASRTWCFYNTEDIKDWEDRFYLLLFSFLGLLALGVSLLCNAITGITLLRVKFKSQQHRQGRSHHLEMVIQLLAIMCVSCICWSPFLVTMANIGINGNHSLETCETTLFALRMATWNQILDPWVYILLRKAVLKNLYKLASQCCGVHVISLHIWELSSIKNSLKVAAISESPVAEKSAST
T12 sequence (P34969 whole entry): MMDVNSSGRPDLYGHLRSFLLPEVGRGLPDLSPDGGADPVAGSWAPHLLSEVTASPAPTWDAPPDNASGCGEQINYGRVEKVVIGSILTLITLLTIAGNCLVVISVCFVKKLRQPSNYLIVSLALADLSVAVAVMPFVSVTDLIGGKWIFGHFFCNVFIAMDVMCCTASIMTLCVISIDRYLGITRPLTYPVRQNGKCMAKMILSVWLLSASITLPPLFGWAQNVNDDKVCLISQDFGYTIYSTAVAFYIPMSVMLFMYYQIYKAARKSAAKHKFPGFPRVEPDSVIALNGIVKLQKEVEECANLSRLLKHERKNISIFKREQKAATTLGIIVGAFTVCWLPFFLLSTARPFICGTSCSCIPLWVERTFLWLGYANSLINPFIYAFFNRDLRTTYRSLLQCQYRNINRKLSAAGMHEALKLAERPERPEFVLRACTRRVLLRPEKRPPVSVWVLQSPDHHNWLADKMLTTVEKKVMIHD
T13 sequence (Q9UKP6 whole entry): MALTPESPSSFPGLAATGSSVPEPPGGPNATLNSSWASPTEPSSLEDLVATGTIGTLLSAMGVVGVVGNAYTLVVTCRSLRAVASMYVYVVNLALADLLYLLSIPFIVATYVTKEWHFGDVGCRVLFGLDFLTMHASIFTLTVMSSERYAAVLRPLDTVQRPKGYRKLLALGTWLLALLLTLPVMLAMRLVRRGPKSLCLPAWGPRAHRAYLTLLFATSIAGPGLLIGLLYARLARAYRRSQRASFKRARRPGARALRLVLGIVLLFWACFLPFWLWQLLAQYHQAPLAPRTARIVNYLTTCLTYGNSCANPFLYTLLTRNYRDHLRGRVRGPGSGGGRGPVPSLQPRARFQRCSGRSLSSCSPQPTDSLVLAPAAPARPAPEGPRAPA
T6 sequence (P49146 whole entry): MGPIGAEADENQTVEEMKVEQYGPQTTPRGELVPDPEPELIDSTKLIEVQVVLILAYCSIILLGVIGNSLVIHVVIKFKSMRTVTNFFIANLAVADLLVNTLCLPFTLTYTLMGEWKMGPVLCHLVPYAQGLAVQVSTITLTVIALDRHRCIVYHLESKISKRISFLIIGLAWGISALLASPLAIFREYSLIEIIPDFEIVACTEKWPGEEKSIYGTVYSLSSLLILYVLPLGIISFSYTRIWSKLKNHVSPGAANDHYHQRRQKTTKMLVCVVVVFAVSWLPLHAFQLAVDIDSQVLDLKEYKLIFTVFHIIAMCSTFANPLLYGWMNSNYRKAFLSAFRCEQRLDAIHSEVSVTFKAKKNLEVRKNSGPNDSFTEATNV
T2 sequence (P41597 1-360 isoform P41597-2): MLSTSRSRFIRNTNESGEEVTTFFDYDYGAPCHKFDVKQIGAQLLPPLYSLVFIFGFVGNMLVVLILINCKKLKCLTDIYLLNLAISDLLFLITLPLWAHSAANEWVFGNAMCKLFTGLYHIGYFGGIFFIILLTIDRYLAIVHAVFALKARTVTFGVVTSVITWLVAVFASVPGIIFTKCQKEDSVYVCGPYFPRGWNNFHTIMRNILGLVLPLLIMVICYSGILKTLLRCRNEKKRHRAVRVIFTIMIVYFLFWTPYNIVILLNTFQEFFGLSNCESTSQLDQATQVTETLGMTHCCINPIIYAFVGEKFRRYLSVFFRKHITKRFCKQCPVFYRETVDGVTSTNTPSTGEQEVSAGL
T14 sequence (P35354 18-604): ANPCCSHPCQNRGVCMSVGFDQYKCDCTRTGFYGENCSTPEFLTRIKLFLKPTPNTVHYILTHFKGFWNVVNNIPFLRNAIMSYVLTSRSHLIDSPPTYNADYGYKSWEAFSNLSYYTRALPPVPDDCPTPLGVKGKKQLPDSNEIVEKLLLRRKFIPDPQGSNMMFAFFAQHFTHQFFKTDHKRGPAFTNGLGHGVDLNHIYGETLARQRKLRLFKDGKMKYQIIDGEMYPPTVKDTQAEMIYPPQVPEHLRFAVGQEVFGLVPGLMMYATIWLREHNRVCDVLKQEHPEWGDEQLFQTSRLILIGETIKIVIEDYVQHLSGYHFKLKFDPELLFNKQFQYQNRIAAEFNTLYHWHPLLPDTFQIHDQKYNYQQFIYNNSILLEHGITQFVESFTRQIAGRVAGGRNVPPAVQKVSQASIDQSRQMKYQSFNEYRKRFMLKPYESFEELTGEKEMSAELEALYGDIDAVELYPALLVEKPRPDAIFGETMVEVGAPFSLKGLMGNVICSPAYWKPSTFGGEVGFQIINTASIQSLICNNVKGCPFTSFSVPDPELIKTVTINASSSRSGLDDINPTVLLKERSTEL
T3 sequence (Q99705 whole entry): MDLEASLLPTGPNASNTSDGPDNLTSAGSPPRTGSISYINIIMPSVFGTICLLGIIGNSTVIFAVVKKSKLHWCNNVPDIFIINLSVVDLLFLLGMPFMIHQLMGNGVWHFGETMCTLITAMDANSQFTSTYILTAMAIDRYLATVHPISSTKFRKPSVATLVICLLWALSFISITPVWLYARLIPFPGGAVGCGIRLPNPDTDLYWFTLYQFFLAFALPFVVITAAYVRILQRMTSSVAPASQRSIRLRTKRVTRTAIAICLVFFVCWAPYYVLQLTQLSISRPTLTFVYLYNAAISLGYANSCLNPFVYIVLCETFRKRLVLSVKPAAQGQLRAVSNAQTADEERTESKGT
Chain of Cholecystokinin CCK1 (P32238 whole entry): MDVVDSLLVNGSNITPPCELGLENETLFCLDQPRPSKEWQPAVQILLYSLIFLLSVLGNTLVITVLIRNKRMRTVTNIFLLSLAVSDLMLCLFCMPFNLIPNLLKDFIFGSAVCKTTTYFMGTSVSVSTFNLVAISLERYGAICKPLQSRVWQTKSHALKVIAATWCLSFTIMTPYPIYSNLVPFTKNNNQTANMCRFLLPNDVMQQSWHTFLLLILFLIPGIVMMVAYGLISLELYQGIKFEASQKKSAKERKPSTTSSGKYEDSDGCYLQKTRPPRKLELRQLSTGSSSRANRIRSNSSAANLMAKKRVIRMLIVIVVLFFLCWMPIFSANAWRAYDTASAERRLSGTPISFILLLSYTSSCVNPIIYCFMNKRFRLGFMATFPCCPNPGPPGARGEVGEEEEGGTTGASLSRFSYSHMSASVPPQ
T9 sequence (P34995 whole entry): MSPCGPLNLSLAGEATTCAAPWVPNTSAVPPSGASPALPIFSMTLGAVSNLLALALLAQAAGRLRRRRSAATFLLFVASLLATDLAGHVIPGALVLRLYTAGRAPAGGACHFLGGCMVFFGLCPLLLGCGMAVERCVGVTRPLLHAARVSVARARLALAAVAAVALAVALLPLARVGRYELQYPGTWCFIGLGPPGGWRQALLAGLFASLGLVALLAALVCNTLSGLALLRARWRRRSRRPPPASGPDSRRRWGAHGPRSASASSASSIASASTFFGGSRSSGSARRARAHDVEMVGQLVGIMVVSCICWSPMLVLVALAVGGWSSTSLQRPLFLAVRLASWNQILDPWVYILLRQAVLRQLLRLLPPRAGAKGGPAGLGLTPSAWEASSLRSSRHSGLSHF

Cc1cc(-c2ncnn2C)c2cccc(OCc3c(Cl)cc(F)cc3[C@H](C)NC(=O)COC(F)F)c2n1 [Compound 3, (S)-N-(1-(3-chloro-5-fluoro-2-((2-methyl-4-(1-methyl-1H-1,2,4-triazol-5-yl)quinolin-8-yloxy)methyl)phenyl)ethyl)-2-(difluoromethoxy)acetamide]
effect on U-46619-induced contraction (prostanoid TP receptor): Lack of antagonist effect; also recorded: no functional antagonism was observed | inhibition at 10 µM (Adenosine A1): 12.4% | inhibition at 10 µM (Chemokine CCR2B): 1% | inhibition at 10 µM (Cholecystokinin CCK1): 2.7% | % Inhibition @ 10 µM [1]: -1% | inhibition at 10 µM [2]: 13.4% | inhibition at 10 µM (Melanocortin MC3): -8.2% | inhibition at 10 µM (Motilin): 5% | % Inhibition @ 10 µM (Neurokinin NK2): 21% | inhibition at 10 µM (Neurokinin NK2): 21.2% | inhibition at 10 µM (Neuropeptide Y2): -19.1% | inhibition at 10 µM (Oxytocin): 5% | % Inhibition @ 10 µM [3]: 6.3% | inhibition at 10 µM (Prostanoid CRTH2): 3% | inhibition at 10 µM (Prostanoid EP1): 80% | inhibition at 10 µM (Prostanoid FP): 19% | % Inhibition @ 10 µM (Purinergic receptor P2Y): -4.3% | inhibition at 10 µM (Serotonin 5-HT2B): -8.9% | inhibition at 10 µM (Serotonin 5-HT7): 3.3% | % Inhibition @ 10 µM [4]: -3.4% | inhibition at 10 µM (Urotensin UT): 13.5% | inhibition at 10 µM (COX2): -18.8% | microsomal CLint at 1 µM (in vitro): 27.9 µL/min/mg | inhibition at 10 µM (Cannabinoid CB1): -3%
